Reference: PubChem BioAssay AID330 (DTP/NCI, 2004)
Values joined by “and” are separate entries in the source; they are usually repeats but may differ in a detail not shown here. Equal entries are not always repeated. Toxic doses and inconclusive results are not listed. How the source made its calls: active means survival T/C of 150% or more; inactive means T/C below 125% in these data.

Tested on: P388 leukemia ip, CD2F1 mice, survival T/C
Experiment: NCI In Vivo Anticancer Drug Screen. Data for tumor model P388 Leukemia (intraperitoneal) in CD2F1 (CDF1) mice
Details: endpoint: median survival time, higher = longer survival
Method in brief: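 Mice carrying the transplanted tumor received test compound or vehicle. Survival was recorded in each group, and the value is the treated-group measurement divided by that of the vehicle-treated control group.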

[1] = dose: 60.0 mg/kg/injection, schedule: Q01DX005 (ip), vehicle: Klucel (hydroxypropylcellulose) (HPC)
[2] = dose: 120.0 mg/kg/injection, schedule: Q01DX005 (ip), vehicle: Klucel (hydroxypropylcellulose) (HPC)
[3] = dose: 50.0 mg/kg/injection, schedule: Q01DX005 (ip), vehicle: Klucel (hydroxypropylcellulose) (HPC)
[4] = dose: 100.0 mg/kg/injection, schedule: Q01DX005 (ip), vehicle: Klucel (hydroxypropylcellulose) (HPC)
[5] = dose: 200.0 mg/kg/injection, schedule: Q01DX005 (ip), vehicle: Klucel (hydroxypropylcellulose) (HPC)
[6] = dose: 50.0 mg/kg/injection, schedule: Q01DX005 (ip), vehicle: saline with Tween-80
[7] = dose: 100.0 mg/kg/injection, schedule: Q01DX005 (ip), vehicle: saline with Tween-80
[8] = dose: 200.0 mg/kg/injection, schedule: Q01DX005 (ip), vehicle: saline with Tween-80
[9] = dose: 50.0 mg/kg/injection, schedule: Q01DX009 (ip), vehicle: saline with Tween-80
[10] = dose: 100.0 mg/kg/injection, schedule: Q01DX009 (ip), vehicle: saline with Tween-80
[11] = dose: 200.0 mg/kg/injection, schedule: Q01DX009 (ip), vehicle: saline with Tween-80
[12] = dose: 50.0 mg/kg/injection, schedule: Q01DX009 (ip), vehicle: saline
[13] = dose: 100.0 mg/kg/injection, schedule: Q01DX009 (ip), vehicle: saline
[14] = dose: 200.0 mg/kg/injection, schedule: Q01DX009 (ip), vehicle: saline
[15] = dose: 100.0 mg/kg/injection, schedule: Q01DX001 (ip), vehicle: saline with Tween-80

Measured: T/C

Cc1ccccc1N1C(=O)[N+](C)(C)N=C1[O-]
inactive: dose: 100.0 mg/kg/injection, schedule: Q04DX003 (ip), vehicle: saline 109 % of control and 113 % of control | dose: 200.0 mg/kg/injection, schedule: Q04DX003 (ip), vehicle: saline 99 % of control and 113 % of control | dose: 400.0 mg/kg/injection, schedule: Q04DX003 (ip), vehicle: saline 91 % of control

COc1cc(C(c2cc3c(cc2O)OCO3)N2CCCC2)cc(OC)c1OC (stereo unspecified)
inactive: [1] 118 % of control | [2] 106 % of control | dose: 240.0 mg/kg/injection, schedule: Q01DX005 (ip), vehicle: Klucel (hydroxypropylcellulose) (HPC) 101 % of control

Nc1nnc2nc(CC(=O)Cc3ccccc3)c(CC(=O)Cc3ccccc3)nn12
inactive: dose: 60.0 mg/kg/injection, schedule: Q01DX005 (ip), vehicle: saline 101 % of control | dose: 120.0 mg/kg/injection, schedule: Q01DX005 (ip), vehicle: saline 100 % of control | dose: 240.0 mg/kg/injection, schedule: Q01DX005 (ip), vehicle: saline 100 % of control

COc1cc(/C=N/NC(=O)c2ccc(NC(C)=O)cc2)ccc1O
inactive: [3] 90 % of control | [4] 90 % of control | [5] 90 % of control

CC1(C)OC(=O)N=C1c1ccc(Br)cc1
inactive: [1] 100 % of control | [2] 104 % of control

O=S(=O)(Cc1ccc(Cl)cc1)Cc1ccc(Cl)cc1
inactive: dose: 100.0 mg/kg/injection, schedule: Q04DX003 (ip), vehicle: saline sonified 100 % of control | dose: 200.0 mg/kg/injection, schedule: Q04DX003 (ip), vehicle: saline sonified 100 % of control | dose: 400.0 mg/kg/injection, schedule: Q04DX003 (ip), vehicle: saline sonified 90 % of control

Nc1nc(N)c2ncn(Cc3c(Cl)cccc3Cl)c2n1
inactive: dose: 50.0 mg/kg/injection, schedule: Q01DX005 (ip), vehicle: distilled water + alcohol 95 % of control | dose: 100.0 mg/kg/injection, schedule: Q01DX005 (ip), vehicle: distilled water + alcohol 97 % of control | dose: 200.0 mg/kg/injection, schedule: Q01DX005 (ip), vehicle: distilled water + alcohol 93 % of control

CC1(C)OC2OC3C(CN)OC(c4ccccc4)OC3C2O1 (stereo unspecified)
inactive: [6] 105 % of control | [7] 103 % of control | [8] 86 % of control

FC(F)Oc1ccccc1
inactive: dose: 50.0 mg/kg/injection, schedule: Q01DX009 (ip), vehicle: acetone 105 % of control | [9] 100 % of control and 101 % of control | dose: 100.0 mg/kg/injection, schedule: Q01DX009 (ip), vehicle: acetone 113 % of control | [10] 100 % of control and 110 % of control | dose: 200.0 mg/kg/injection, schedule: Q01DX009 (ip), vehicle: acetone 110 % of control | [11] 114 % of control

O=C(O)c1cc(S(=O)(=O)F)c(Cl)cc1Cl
inactive: dose: 60.0 mg/kg/injection, schedule: Q01DX005 (ip), vehicle: saline with Tween-80 119 % of control | dose: 120.0 mg/kg/injection, schedule: Q01DX005 (ip), vehicle: saline with Tween-80 104 % of control | dose: 240.0 mg/kg/injection, schedule: Q01DX005 (ip), vehicle: saline with Tween-80 104 % of control

Cc1ccccc1C1(O)CCCCC1
inactive: [9] 105 % of control | [10] 107 % of control | [11] 101 % of control

COc1cc(OC)c(NC(=O)Oc2cc(C)c(Br)c(C)c2)cc1Cl
inactive: [9] 91 % of control | [10] 95 % of control | [11] 108 % of control

O=C1C2CCN(CC2)C1(CO)CO
inactive: [12] 102 % of control | [13] 105 % of control | [14] 105 % of control

O=[n+]1c2c(n([O-])c3ccccc31)-c1cccc3cccc-2c13
inactive: dose: 12.5 mg/kg/injection, schedule: Q01DX010 (ip), vehicle: saline 100 % of control | dose: 25.0 mg/kg/injection, schedule: Q01DX010 (ip), vehicle: saline 100 % of control | dose: 50.0 mg/kg/injection, schedule: Q01DX010 (ip), vehicle: saline 100 % of control | dose: 100.0 mg/kg/injection, schedule: Q01DX010 (ip), vehicle: saline 100 % of control

CN1CCc2c(c3ccccc3c3ccccc23)C1
inactive: dose: 0.09 mg/kg/injection, schedule: Q01DX009 (ip), vehicle: Klucel (hydroxypropylcellulose) (HPC) 99 % of control | dose: 0.19 mg/kg/injection, schedule: Q01DX009 (ip), vehicle: Klucel (hydroxypropylcellulose) (HPC) 107 % of control | dose: 0.39 mg/kg/injection, schedule: Q01DX009 (ip), vehicle: Klucel (hydroxypropylcellulose) (HPC) 104 % of control | dose: 0.78 mg/kg/injection, schedule: Q01DX009 (ip), vehicle: Klucel (hydroxypropylcellulose) (HPC) 102 % of control | dose: 1.56 mg/kg/injection, schedule: Q01DX009 (ip), vehicle: Klucel (hydroxypropylcellulose) (HPC) 104 % of control and 91 % of control | dose: 3.12 mg/kg/injection, schedule: Q01DX009 (ip), vehicle: Klucel (hydroxypropylcellulose) (HPC) 94 % of control | dose: 6.25 mg/kg/injection, schedule: Q01DX009 (ip), vehicle: Klucel (hydroxypropylcellulose) (HPC) 86 % of control and 96 % of control | dose: 12.5 mg/kg/injection, schedule: Q01DX009 (ip), vehicle: Klucel (hydroxypropylcellulose) (HPC) 104 % of control | dose: 25.0 mg/kg/injection, schedule: Q01DX009 (ip), vehicle: Klucel (hydroxypropylcellulose) (HPC) 113 % of control and 92 % of control | dose: 50.0 mg/kg/injection, schedule: Q01DX009 (ip), vehicle: Klucel (hydroxypropylcellulose) (HPC) 105 % of control

CN(c1ccccc1)C1C=C(c2ccccc2)OC(=O)C1(Cl)Cl (stereo unspecified)
inactive: [9] 92 % of control | [10] 95 % of control | [11] 98 % of control

NNC(=S)Nc1ccccc1
inactive: dose: 1.25 mg/kg/injection, schedule: Q01DX009 (ip), vehicle: saline with Tween-80 104 % of control | dose: 2.5 mg/kg/injection, schedule: Q01DX009 (ip), vehicle: saline with Tween-80 100 % of control | dose: 5.0 mg/kg/injection, schedule: Q01DX009 (ip), vehicle: saline with Tween-80 95 % of control

O=C(O)c1cnccc1C(=O)c1ccccc1
inactive: [3] 101 % of control | [4] 101 % of control | [5] 92 % of control

NC(=O)C1CCCN(C2OC(COP(=O)(O)OP(=O)(O)OCC3OC(n4nnc5c(=O)[nH]c(N)nc54)C(O)C3O)C(O)C2O)C1 (stereo unspecified)
inactive: dose: 50.0 mg/kg/injection, schedule: Q01DX005 (ip), vehicle: saline 115 % of control | dose: 100.0 mg/kg/injection, schedule: Q01DX005 (ip), vehicle: saline 98 % of control | dose: 200.0 mg/kg/injection, schedule: Q01DX005 (ip), vehicle: saline 87 % of control

Nc1ccccc1C(=O)N/N=C\c1ccc(O)cc1
inactive: dose: 12.5 mg/kg/injection, schedule: Q01DX009 (ip), vehicle: saline with Tween-80 94 % of control | dose: 25.0 mg/kg/injection, schedule: Q01DX009 (ip), vehicle: saline with Tween-80 89 % of control and 91 % of control | [9] 101 % of control and 94 % of control | [10] 99 % of control and 87 % of control

COC(=O)c1cn(C(C)=O)c(C)c1C(=O)OC
inactive: [15] 100 % of control | dose: 200.0 mg/kg/injection, schedule: Q01DX001 (ip), vehicle: saline with Tween-80 95 % of control | dose: 400.0 mg/kg/injection, schedule: Q01DX001 (ip), vehicle: saline with Tween-80 104 % of control

CCOC(=O)c1cc2c(nc1C)-c1ccccc1OC2Nc1ccccc1 (stereo unspecified)
inactive: dose: 3.12 mg/kg/injection, schedule: Q01DX005 (ip), vehicle: saline with Tween-80 98 % of control | dose: 6.25 mg/kg/injection, schedule: Q01DX005 (ip), vehicle: saline with Tween-80 96 % of control | dose: 12.5 mg/kg/injection, schedule: Q01DX005 (ip), vehicle: saline with Tween-80 96 % of control | [6] 88 % of control | [15] 89 % of control

CC(O)CN1C=NC(C)C1 (stereo unspecified)
inactive: [12] 95 % of control | [13] 100 % of control | [14] 103 % of control

CCOC(=O)c1cc(NO)c(=O)c2ccc(OC)cc2c1
inactive: dose: 25.0 mg/kg/injection, schedule: Q01DX005 (ip), vehicle: saline with Tween-80 91 % of control | [6] 90 % of control and 96 % of control | [7] 89 % of control | [8] 91 % of control
